# Measurements as given in the Deep4Chem optical property database.
# Test: solvent given as SMILES
smiles,measurement,setting,value
Nc1nc(/C=C/c2ccc(N(c3ccccc3)c3ccccc3)cc2)cc(/C=C/c2ccc(N(c3ccccc3)c3ccccc3)cc2)n1,absorption maximum,in Cc1ccccc1,417 nm
same,absorption maximum,in ClC(Cl)Cl,432 nm
c1ccc(-c2nc(-c3ccc(N4c5ccccc5Oc5ccccc54)cc3)nn2-c2ccc(N3c4ccccc4Oc4ccccc43)cc2)nc1,absorption maximum,in ClCCl,333 nm
COc1cc2c(cc1/C=C(\C#N)c1nc3ccccc3s1)c1ccccc1n2C,absorption maximum,in C1CCOC1,433 nm
same,absorption maximum,in CC#N,431 nm
same,absorption maximum,in CCOC(C)=O,430 nm
same,absorption maximum,in CN(C)C=O,439 nm
same,absorption maximum,in CO,437 nm
same,absorption maximum,in CS(C)=O,443 nm
same,absorption maximum,in Cc1ccccc1,431 nm
same,absorption maximum,in ClC(Cl)Cl,434 nm
same,absorption maximum,in ClCCl,435 nm
CC[n+]1c(-c2ccccc2)c2cc(N)ccc2c2ccc(-n3cccc3)cc21,absorption maximum,in O,454 nm
COc1ccc2ccc(O)cc2c1,absorption maximum,in O,325 nm
CCOC(=O)/C(C#N)=C/c1cc2c3ccccc3n(C)c2cc1OC,absorption maximum,in C1CCOC1,407 nm
same,absorption maximum,in CC#N,410 nm
same,absorption maximum,in CCOC(C)=O,406 nm
same,absorption maximum,in CN(C)C=O,417 nm
same,absorption maximum,in CO,415 nm
same,absorption maximum,in CS(C)=O,419 nm
same,absorption maximum,in Cc1ccccc1,407 nm
same,absorption maximum,in ClC(Cl)Cl,415 nm
same,absorption maximum,in ClCCl,412 nm
COc1nnc(Cl)nn1,absorption maximum,in ClCCl,520 nm
same,absorption maximum,in OCC(F)(F)F,518 nm
Cc1cn(C(F)(F)F)c(=O)[nH]c1=O,absorption maximum,in CC#N,255 nm
CCCCCCc1cc2c(=S)c3cc(CCCCCC)cc4c(=S)c5cc(CCCCCC)cc6c(=S)c(c1)c2n(c34)c65,absorption maximum,in ClCCl,572 nm
CC(C)(C)c1ccc2c(c1)c1ccc3cccc4c5cccc6oc(=O)c2c(c65)c1c34,absorption maximum,in C1CCOC1,412 nm
O=c1c2ccccc2nc2n1[B-](F)(F)[n+]1ccccc1-2,absorption maximum,in CC#N,334 nm
same,absorption maximum,in ClCCl,353 nm
c1cc2c3c(cccc3c1)-c1c-2c2c3ccccc3c3ccc4c5c6c(c7c8ccccc8c8ccc9c%10c%11c(c%12c%13ccccc%13c%13ccc%14c1c1c2c3c4c2c1c1c%14c%13c%12c%10c1c1c9c8c7c5c21)-c1cccc2cccc-%11c12)-c1cccc2cccc-6c12,absorption maximum,in C1CCOC1,475 nm
[O-][n+]1c(-c2ccc(Br)cc2)cc(N2CCOCC2)nc1/C=C/c1ccccc1,absorption maximum,in ClCCl,445 nm
CCNc1cc2oc(=O)cc(C)c2cc1C,absorption maximum,in CC#N,354 nm
COc1ccc(C2CC(=O)Oc3c2c2nc4ccccc4nc2c2ccccc32)cc1 (stereo not given),absorption maximum,in ClC(Cl)Cl,406 nm
COc1ccccc1C1=C2C=CC(=[N+](C)C)C=C2[Si](C)(C)c2cc(N(C)C)ccc21,absorption maximum,in O,649 nm
CN(C)c1ccc(/C=C/c2ccc(C#N)cc2)cc1,absorption maximum,in C1CCOC1,385 nm
same,absorption maximum,in CC#N,383 nm
same,absorption maximum,in CCCC#N,386 nm
same,absorption maximum,in CCCCCC,378 nm
same,absorption maximum,in CCCCOCCCC,380 nm
same,absorption maximum,in CCO,383 nm
same,absorption maximum,in CCOCC,380 nm
Cc1ccc(C2=[N+]3C(=Nc4c5ccccc5c(-c5ccc(C)s5)n4[B-]3(F)F)c3ccccc32)s1,absorption maximum,in ClCCl,793 nm
O=C(O)CCCCCn1c2ccccc2c(=O)c2cc(F)ccc21,absorption maximum,in O,420 nm
Cc1c(-c2ccc(N3c4ccccc4C(C)(C)c4ccccc43)cc2)ncnc1-c1ccc(N2c3ccccc3C(C)(C)c3ccccc32)cc1,absorption maximum,in Cc1ccccc1,367.5 nm
Cc1cc(C)c(B(c2c(C)cc(C)cc2C)c2c(C)cc(N3c4ccccc4Oc4ccccc43)cc2C)c(C)c1,absorption maximum,in Cc1ccccc1,399 nm
c1ccc(CSc2c3ccc(=[N+]4CCCCC4)cc-3oc3cc(N4CCCCC4)ccc23)cc1,absorption maximum,in ClCCl,598 nm
COc1ccc2c3ccc(OC)cc3n(-c3ccc(-c4nnc(C)o4)cc3)c2c1,absorption maximum,in Cc1ccccc1,319 nm
C(=C\c1cc[n+]2ccc(/C=C/c3ccsc3)cc2c1)/c1ccsc1,absorption maximum,in CO,432 nm
COc1ccc2cc(-c3ccc(C(F)(F)F)cc3)oc(=O)c2c1,absorption maximum,in CCCCCC,326 nm
same,absorption maximum,in CCCCCCCCO,327 nm
same,absorption maximum,in CCCCO,326 nm
same,absorption maximum,in CCCO,325 nm
same,absorption maximum,in CCO,324 nm
same,absorption maximum,in CCOC(C)=O,326 nm
same,absorption maximum,in CN(C)C=O,328 nm
same,absorption maximum,in CO,324 nm
same,absorption maximum,in ClC(Cl)Cl,327 nm
COc1ccccc1-c1nc2c3ccccc3c3ccccc3c2n1-c1ccc(C)cc1,absorption maximum,in Cc1ccccc1,359 nm
CC(C)(C)c1cc2ccc3cc(C(C)(C)C)cc4c3c2c(c1)c(=O)n1c4nc2c3ccccc3c3ccccc3c21,absorption maximum,in C1CCOC1,354 nm
same,absorption maximum,in CC#N,365 nm
same,absorption maximum,in CC(C)=O,365 nm
same,absorption maximum,in CCCCCC,367 nm
same,absorption maximum,in CCO,366 nm
same,absorption maximum,in CCOC(C)=O,366 nm
same,absorption maximum,in CO,362 nm
same,absorption maximum,in CS(C)=O,368 nm
same,absorption maximum,in Cc1ccc(C)cc1,368 nm
same,absorption maximum,in ClC(Cl)(Cl)Cl,369 nm
same,absorption maximum,in ClC(Cl)Cl,368 nm
same,absorption maximum,in c1ccccc1,369 nm
N#Cc1c(-n2nnc3ccccc32)n([C@H]2C[C@H](O)[C@@H](CO)O2)c2ncnc(N)c12,absorption maximum,in CO,278 nm
c1ccc2c(c1)ccc1ccc3ccc4ccc5ccccc5c4c3c12,absorption maximum,in ClCCl,435 nm
Oc1cccc(O)c1-c1c2ccc(=[N+]3CCCCC3)cc-2oc2cc(N3CCCCC3)ccc12,absorption maximum,in CCO,557 nm
FC(F)(F)c1ccc(-n2c(-c3ccc(N(c4ccc(-c5ccc(N(c6ccc(-c7nc8c9ccccc9c9ccccc9c8n7-c7ccc(C(F)(F)F)cc7)cc6)c6ccc(-c7nc8c9ccccc9c9ccccc9c8n7-c7ccc(C(F)(F)F)cc7)cc6)cc5)cc4)c4ccc(-c5nc6c7ccccc7c7ccccc7c6n5-c5ccc(C(F)(F)F)cc5)cc4)cc3)nc3c4ccccc4c4ccccc4c32)cc1,absorption maximum,in ClCCl,376 nm
C(#Cc1ccc(-n2c3ccccc3c3ccccc32)cc1)c1ccc(-c2nc(-c3ccc(C#Cc4ccc(-n5c6ccccc6c6ccccc65)cc4)cc3)nc(-c3ccc(C#Cc4ccc(-n5c6ccccc6c6ccccc65)cc4)cc3)n2)cc1,absorption maximum,in ClCCl,361 nm
COc1ccc(-c2cc3c(ccc4sccc43)s2)cc1,absorption maximum,in ClCCl,333 nm
Cc1cc2nc3[nH]c(=O)n(C)c(=O)c3nc2cc1C,absorption maximum,in CC#N,379 nm
COc1ccc(-c2ccc(/C=C/c3cnc4ccccc4n3)cc2)cc1,absorption maximum,in ClCCl,379 nm
O=C(c1ccccc1)c1cc2ccc1CCc1ccc(c(-c3ccc(N(c4ccccc4)c4ccccc4)cc3)c1)CC2,absorption maximum,in Cc1ccccc1,312 nm
COc1ccc2c(c1)c1cc(OC)ccc1n2-c1ccc(S(=O)(=O)c2ccc(-n3c4ccc(OC)cc4c4cc(OC)ccc43)cc2)cc1,absorption maximum,in Cc1ccccc1,369.69 nm
COc1ccc(C(=Cc2ccc(/C=C/c3ccc(C#N)cc3)cc2)c2ccc(OC)cc2)cc1,absorption maximum,in C1CCOC1,379 nm
COc1ccc2c(c1)c1ccc3cccc4c5cccc6oc(=O)c2c(c65)c1c34,absorption maximum,in C1CCOC1,425 nm
Nc1nc2ccc([N+](=O)[O-])cc2s1,absorption maximum,in CC#N,355 nm
same,absorption maximum,in ClCCl,346 nm
CCc1c(C)c2n(c1C)[B-](F)(F)[N+]1=C(NCc3ccc(OC)cc3)C=CC1=C2C,absorption maximum,in CC#N,524 nm
same,absorption maximum,in CCCCCC,534 nm
same,absorption maximum,in CCOC(C)=O,527 nm
same,absorption maximum,in CO,525 nm
same,absorption maximum,in ClCCl,531 nm
CCOc1cccc(-c2nc3c(c4c2-c2ccccc2CC4)-c2ccccc2CC3)c1O,absorption maximum,in ClCCl,335 nm
CN(C)c1ncc2nc(C#N)n(Cc3ccccc3)c2n1,absorption maximum,in C1COCCO1,355 nm
same,absorption maximum,in CC#N,357 nm
same,absorption maximum,in CO,358 nm
same,absorption maximum,in ClCCl,361 nm
